Measurements from patent US20220381779A1, “METHODS FOR THE DIAGNOSIS OF BURULI ULCER” (INSERM (INSTITUT NATIONAL DE LA SANTÉ ET DE LA RECHERCHE …, priority 2019, published 2022).

Test system: CD4+ T cells
Experiment: Neutralizing activity assay: cytokine production by PMA/ionomycin-stimulated CD4+ T cells in contact with mycolactone
Format: cell-based, C57Bl/6 mice
Conditions: mycolactone 4 ng/mL, 6 h, compared to positive control (T cells only stimulated)
Description: FIG. 2: Neutralization of mycolactone by cutaneous immunoglobulin from FVB/N mice infected with M. ulcerans. CD4+ lymphocytes were stimulated with PMA/ionomycin. Mycolactone was used at a concentration of 4 ng/mL. Immunoglobulins purified from the skin of A) FVB/N mice or B) C57Bl/6 mice infected with M. ulcerans were used at a ratio of 10 immunoglobulin molecules per molecule of mycolactone. Left panel: IL-2 quantification, Right panel: IFNγ quantification. The data shown correspond to one experiment performed in triplicate (mean±SD).
CD4+ T cells were isolated from the spleens of C57Bl/6 mice by magnetic sorting (MACS technology kit 130-104-454), according to the manufacturer's instructions (Miltenyi Biotec). The purity of CD4+ T-cell preparations was determined by flow cytometry, with PE-conjugated anti-CD4 monoclonal antibody (eBioscience) and FITC-conjugated anti-CD3E monoclonal antibody (eBioscience). […] IL-2 and IFN-γ were quantified by ELISA (eBioscience), according to the manufacturer's instructions (Mouse IL-2 Ready-SET-Go: 88-7024 and Mouse IFN-γ Ready-SET-Go: 88-7314 respectively).
In this context, we assessed whether these antibodies could not only recognized but also neutralized mycolactone, by evaluating cytokines production by T lymphocytes as an indicator of the immunomodulatory property of mycolactone. […]

CC(=C\C=C\C(C)=C\[C@H](O)[C@@H](O)C[C@H](C)O)/C=C(C)/C=C/C(=O)O[C@H]1CCCC(=O)O[C@@H]([C@@H](C)C/C(C)=C/[C@@H](C)[C@H](O)C[C@@H](C)O)C/C=C(\C)C[C@@H]1C [mycolactone, [(6S,7S,9E,12R)-12-[(E,2S,6R,7R,9R)-7,9-dihydroxy-4,6-dimethyldec-4-en-2-yl]-7,9-dimethyl-2-oxo-1-oxacyclododec-9-en-6-yl] (2E,4E,6E,8E,10E,12S,13S,15S)-12,13,15-trihydroxy-4,6,10-trimethylhexadeca-2,4,6,8,10-pentaenoate]
IFNγ production by T cells: greatly decreased | IL-2 production by T cells: greatly decreased
